Patent US20240417374A1, “SMALL MOLECULE ANTAGONIST TO PACAP RECEPTOR AND USES THEREOF” (The University of Vermont and State Agricultural College, priority 2021, published 2024)
Where “and” joins values, the source holds several entries; their conditions need not be identical. Equal entries are not always repeated.

Assays:
[1] = test system: PACAP-induced anxiety-related behaviors; details: earlier work, WO/2020/168068; cited from earlier work
[2] = molecular target: T1, PAC1 receptor (Homo sapiens, UniProt P41586); assay: Inhibition of 20 nM PACAP-stimulated ERK activation in stable PAC1 receptor HEK cells (Western blot); assay type: cell-based; parameters: expressed in transfected cells; details: for efficacy and potency in blocking PACAP/PAC1 receptor-stimulated ERK activation, in words: stable human HEK PAC1 receptor cell line, FIGS. 1 and 2
T1 sequence (P41586 21-468): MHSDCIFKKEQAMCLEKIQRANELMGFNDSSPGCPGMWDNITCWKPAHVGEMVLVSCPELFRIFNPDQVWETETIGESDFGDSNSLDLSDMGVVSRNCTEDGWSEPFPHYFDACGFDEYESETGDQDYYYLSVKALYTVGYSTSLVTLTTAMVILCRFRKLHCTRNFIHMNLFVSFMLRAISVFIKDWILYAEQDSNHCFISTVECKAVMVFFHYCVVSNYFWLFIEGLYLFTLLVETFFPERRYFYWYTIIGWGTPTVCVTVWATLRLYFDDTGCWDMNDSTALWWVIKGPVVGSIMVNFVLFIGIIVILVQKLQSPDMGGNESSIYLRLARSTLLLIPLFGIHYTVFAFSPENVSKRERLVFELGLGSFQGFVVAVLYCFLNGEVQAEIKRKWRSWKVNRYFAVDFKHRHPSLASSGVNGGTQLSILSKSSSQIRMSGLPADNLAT

[3] = molecular target: T1, PAC1 receptor; parameters: expressed in transfected cells; details: earlier work, WO/2020/168068; cited from earlier work
[4] = molecular target: T1, PAC1 receptor; parameters: expressed in transfected cells; details: earlier work, WO/2020/168068; cited from earlier work; remark: listed apart in the source
[5] = molecular target: T1, PAC1 receptor; parameters: expressed in transfected cells; details: earlier work, WO/2020/168068; cited from earlier work; remark: listed apart in the source
[6] = test system: rats; assay: Elevated plus maze after bilateral BNST infusion, PACAP-induced anxiety-like responses; assay type: in vivo, rat; details: FIG. 3B
Protocol: FIG. 3 depicts that PAC1 receptor antagonist RJB-145 blocks PACAP-induced signaling and anxiety-like behavioral responses. […] 20 μM RJB-145 blocked PACAP-stimulated ERK activation nearly 75%. Data represent mean +/− SEM; n=3−4 wells/group. […] Anxiety ridden rats avoid the open arms of the maze and prefer traveling into the closed arms. […] Data represent mean +/− SEM; n=8-10 animals/group; **, statistically different from vehicle, RJB145 and PACAP+RJB145 at p<0.01.

[7] = molecular target: T1, PAC1 receptor; assay: PAC1 receptor-stimulated adenylyl cyclase cAMP activation; assay type: cell-based
[8] = molecular target: T1, PAC1 receptor; assay: PACAP-induced calcium flux in HEK PAC1R stable cell lines; assay type: cell-based; parameters: expressed in transfected cells; details: 20 nM PACAP, FIG. 3A, read-out: calculated IC50, attenuation of PACAP-induced calcium flux
[9] = 20 nM PACAP, PAC1 receptor HEK cells, FIG. 2, read-out: apparent IC50, inhibition of PACAP-stimulated ERK activation

| IC50 [2, 9] | IC50 ([2]; 20 nM PACAP, HEK PAC1R stable cell lines, FIG. 3A, read-out: calculated IC50, attenuation of PACAP-induced ERK activation) [µM] | block of PACAP-stimulated ERK activation ([2]; 20 μM compound, FIG. 3A) [%] | blocking PACAP/PAC1 receptor stimulated ERK activation (Western blot) ([2]; 25 μM pretreatment, 20 nM PACAP, FIG. 1) | efficacy and potency in blocking PACAP/PAC1 receptor-stimulated ERK activation, in words [2] | effect on PAC1 receptor-stimulated adenylyl cyclase cAMP activation [7] | IC50 [8] [µM] | Compound | blocking PACAP-induced anxiety-related behaviors in vivo [1] | PAC1 receptor endosomal ERK signaling [3] | combination with GCGR antagonist MK-0893 to inhibit PACAP/PAC1 receptor mediated ERK activation [3] | PACAP-stimulated PAC1 receptor plasma membrane calcium signaling [4] | PAC1 receptor internalization [5] | behavioral effect on elevated plus maze, compound infused alone ([6]; 20 μM/0.5 μL bilaterally into BNST of rats, 5 min per trial) | antagonism of PACAP-induced anxiety-like responses (open arm time) on elevated plus maze ([6]; PACAP+RJB-145 infused bilaterally into BNST of rats) |
| --- | --- | --- | --- | --- | --- | --- | --- | --- | --- | --- | --- | --- | --- | --- |
| 5 to 8 µM | – | – | – | – | – | – | O=C(N/N=C/c1cccc2c1ccn2Cc1cc(F)cc(F)c1)c1ccc(O)c(Cl)c1 [JF-214] | demonstrated efficacy | blocked | acted synergistically | blocked | blocked | – | – |
| ~10 µM and 10 µM | 9 | ~75 | demonstrate efficacy | shows efficacy and potency | without significant effects | 8.5 | O=C(Nc1ccc(S(=O)(=O)Nc2cc(F)cc(F)c2)cc1)c1cc2ccccc2[nH]1 [RJB-145] | – | – | – | – | – | no behavioral effects compared to vehicle | completely antagonize the PACAP-induced anxiety-like responses to control vehicle levels |
| ~25 µM | – | – | – | appeared less potent | – | – | O=C(Nc1ccc(S(=O)(=O)Nc2ccccc2)cc1)c1cc2ccccc2[nH]1 [RJB-88] | – | – | – | – | – | – | – |
